From ChEMBL document CHEMBL3228036, “A new chemical series active against African trypanosomes: benzyltriphenylphosphonium salts” (J Med Chem, 1979)
The source made the active and inactive calls. The calls are words filed in the database; no cut-off is given here.

Assays:
[1] = test system: Trypanosoma brucei rhodesiense; assay: […] activity against Trypanosoma brucei rhodesiense Wellcome CT infected in ICR/HA mouse assessed as curated mouse at 53 mg/kg, po treated within 2 hrs of parasite infection measured up to 30 days; assay type: functional, organism-based; design: dose 53 mg/kg
[2] = test system: Trypanosoma brucei rhodesiense; assay: […] activity against Trypanosoma brucei rhodesiense Wellcome CT infected in ICR/HA mouse assessed as curated mouse at 424 mg/kg, sc treated within 2 hrs of parasite infection measured up to 30 days; assay type: functional, organism-based; design: dose 424 mg/kg
[3] = test system: Trypanosoma brucei rhodesiense; assay: […] activity against Trypanosoma brucei rhodesiense Wellcome CT infected in ICR/HA mouse assessed as curated mouse at 26.5 mg/kg, po treated within 2 hrs of parasite infection measured up to 30 days; assay type: functional, organism-based; design: dose 26.5 mg/kg
[4] = test system: Trypanosoma brucei rhodesiense; assay: […] activity against Trypanosoma brucei rhodesiense Wellcome CT infected in ICR/HA mouse assessed as curated mouse at 13.3 mg/kg, sc treated within 2 hrs of parasite infection measured up to 30 days; assay type: functional, organism-based; design: dose 13.3 mg/kg
[5] = test system: Trypanosoma brucei rhodesiense; assay: […] activity against Trypanosoma brucei rhodesiense Wellcome CT infected in ICR/HA mouse assessed as curated mouse at 106 mg/kg, sc treated within 2 hrs of parasite infection measured up to 30 days; assay type: functional, organism-based; design: dose 106 mg/kg
Mus musculus [6] = assay: Toxicity in Trypanosoma brucei rhodesiense Wellcome CT infected ICR/HA mouse assessed as mortality at 424 mg/kg, sc treated within 2 hrs of parasite infection measured up to 30 days; assay type: organism-based; design: dose 424 mg/kg, route subcutaneous; conditions: in vivo
[7] = test system: Trypanosoma brucei rhodesiense; assay: […] activity against Trypanosoma brucei rhodesiense Wellcome CT infected in ICR/HA mouse assessed as curated mouse at 106 mg/kg, po treated within 2 hrs of parasite infection measured up to 30 days; assay type: functional, organism-based; design: dose 106 mg/kg
[8] = test system: Trypanosoma brucei rhodesiense; assay: […] activity against Trypanosoma brucei rhodesiense Wellcome CT infected in ICR/HA mouse assessed as curated mouse at 13.3 mg/kg, po treated within 2 hrs of parasite infection measured up to 30 days; assay type: functional, organism-based; design: dose 13.3 mg/kg
[9] = test system: Trypanosoma brucei rhodesiense; assay: […] activity against Trypanosoma brucei rhodesiense Wellcome CT infected in ICR/HA mouse assessed as curated mouse at 26.5 mg/kg, sc treated within 2 hrs of parasite infection measured up to 30 days; assay type: functional
Mus musculus [10] = assay: Toxicity in Trypanosoma brucei rhodesiense Wellcome CT infected ICR/HA mouse assessed as mortality at 212 mg/kg, sc treated within 2 hrs of parasite infection measured up to 30 days; assay type: organism-based; design: dose 212 mg/kg, route subcutaneous; conditions: in vivo
[11] = test system: Trypanosoma brucei rhodesiense; assay: […] activity against Trypanosoma brucei rhodesiense Wellcome CT infected in ICR/HA mouse assessed as curated mouse at 424 mg/kg, po treated within 2 hrs of parasite infection measured up to 30 days; assay type: functional, organism-based; design: dose 424 mg/kg
[12] = test system: Trypanosoma brucei rhodesiense; assay: […] activity against Trypanosoma brucei rhodesiense Wellcome CT infected in ICR/HA mouse assessed as curated mouse at 212 mg/kg, po treated within 2 hrs of parasite infection measured up to 30 days; assay type: functional, organism-based; design: dose 212 mg/kg
[13] = test system: Trypanosoma brucei rhodesiense; assay: […] activity against Trypanosoma brucei rhodesiense Wellcome CT infected in ICR/HA mouse assessed as curated mouse at 6.5 mg/kg, sc treated within 2 hrs of parasite infection measured up to 30 days; assay type: functional, organism-based; design: dose 6.5 mg/kg
Mus musculus [14] = assay: Toxicity in Trypanosoma brucei rhodesiense Wellcome CT infected ICR/HA mouse assessed as mortality at 212 mg/kg, po treated within 2 hrs of parasite infection measured up to 30 days; assay type: organism-based; design: dose 212 mg/kg, route oral; conditions: in vivo
[15] = test system: Trypanosoma brucei rhodesiense; assay: […] activity against Trypanosoma brucei rhodesiense Wellcome CT infected in ICR/HA mouse assessed as curated mouse at 53 mg/kg, sc treated within 2 hrs of parasite infection measured up to 30 days; assay type: functional, organism-based; design: dose 53 mg/kg
Mus musculus [16] = assay: Toxicity in Trypanosoma brucei rhodesiense Wellcome CT infected ICR/HA mouse assessed as mortality at 424 mg/kg, po treated within 2 hrs of parasite infection measured up to 30 days; assay type: organism-based; design: dose 424 mg/kg, route oral; conditions: in vivo
[17] = test system: Trypanosoma brucei rhodesiense; assay: […] activity against Trypanosoma brucei rhodesiense Wellcome CT infected in ICR/HA mouse assessed as curated mouse at 212 mg/kg, sc treated within 2 hrs of parasite infection measured up to 30 days; assay type: functional, organism-based; design: dose 212 mg/kg
[18] = test system: Trypanosoma brucei rhodesiense; assay: […] activity against Trypanosoma brucei rhodesiense Wellcome CT infected in ICR/HA mouse assessed as curated mouse at 6.5 mg/kg, po treated within 2 hrs of parasite infection measured up to 30 days; assay type: functional, organism-based; design: dose 6.5 mg/kg

SMILES: Cc1cccc([P+](Cc2ccccc2)(c2cccc(C)c2)c2cccc(C)c2)c1.[Cl-]
- Activity [1]: inactive
- Activity [2]: inactive
- Activity [3]: inactive
- Activity [4]: inactive
- Activity [5]: inactive
- Activity (Mus musculus [6]): Toxic
- Activity [7]: inactive
- Activity [8]: inactive

SMILES: Cc1ccccc1C[P+](c1ccccc1)(c1ccccc1)c1ccccc1.[Cl-]
- Activity (Mus musculus [6]): Toxic
- Activity ([9]; route subcutaneous): 40%
- Activity (Mus musculus [10]): Toxic

SMILES: Clc1ccc(OC[P+](c2ccccc2)(c2ccccc2)c2ccccc2)cc1.[Cl-]
- Activity [11]: inactive
- Activity [2]: inactive
- Activity [4]: inactive
- Activity (Mus musculus [6]): Toxic
- Activity [9]: inactive

SMILES: [Br-].c1ccc(C[P+](c2ccccc2)(c2ccccc2)c2ccccc2)cc1
- Activity [1]: inactive
- Activity [12]: inactive
- Activity [2]: inactive
- Activity [13]: inactive
- Activity [3]: inactive
- Activity [4]: inactive
- Activity (Mus musculus [14]): Toxic
- Activity [15]: inactive
- Activity [5]: inactive
- Activity (Mus musculus [6]): Toxic
- Activity [9]: inactive
- Activity [8]: inactive

SMILES: C=CC[P+](c1ccccc1)(c1ccccc1)c1ccccc1.[Br-]
- Activity [11]: inactive
- Activity [2]: inactive
- Activity [4]: inactive
- Activity (Mus musculus [6]): Toxic
- Activity [9]: inactive

SMILES: Cc1ccccc1[P+](Cc1ccccc1)(c1ccccc1)c1ccccc1.[Cl-]
- Activity [1]: inactive
- Activity [11]: inactive
- Activity [2]: inactive
- Activity [13]: inactive
- Activity [3]: inactive
- Activity [4]: inactive
- Activity [15]: inactive
- Activity [5]: inactive
- Activity (Mus musculus [16]): Toxic
- Activity (Mus musculus [6]): Toxic
- Activity [8]: inactive

SMILES: CCCCCCCCCCCC[P+](c1ccccc1)(c1ccccc1)c1ccccc1
- Activity [11]: inactive
- Activity [2]: inactive
- Activity [17]: inactive
- Activity [5]: inactive
- Activity [9]: inactive

SMILES: Clc1ccccc1C[P+](c1ccccc1)(c1ccccc1)c1ccccc1.[Cl-]
- Activity [1]: inactive
- Activity [12]: inactive
- Activity [11]: inactive
- Activity [2]: inactive
- Activity [3]: inactive
- Activity [4]: inactive
- Activity (Mus musculus [14]): Toxic
- Activity [17]: inactive
- Activity (Mus musculus [16]): Toxic
- Activity (Mus musculus [6]): Toxic
- Activity [7]: inactive
- Activity (Mus musculus [10]): Toxic
- Activity [8]: inactive

SMILES: N=C(N)c1ccc(/C=C/c2ccc(C(=N)N)cc2O)cc1 [HYDROXYSTILBAMIDINE]
- Activity ([9]; route subcutaneous): 71%

SMILES: Cc1ccccc1C[P+](c1ccccc1)(c1ccccc1)c1ccccc1
- Activity [1]: inactive
- Activity [12]: inactive
- Activity [11]: inactive
- Activity [2]: inactive
- Activity [3]: inactive
- Activity [4]: inactive
- Activity [15]: inactive
- Activity [17]: inactive
- Activity [5]: inactive
- Activity [9]: inactive
- Activity [7]: inactive
- Activity [8]: inactive

SMILES: N=C(N)c1ccc(/C=C/c2ccc(C(=N)N)cc2)cc1 [STILBAMIDINE]
- Activity [1]: Active
- Activity [12]: Active
- Activity [11]: Active
- Activity [2]: Active
- Activity [4]: Active
- Activity [15]: Active
- Activity [17]: Active
- Activity [18]: inactive
- Activity [5]: Active
- Activity ([9]; route subcutaneous): 98%
- Activity [7]: Active

SMILES: COC(=O)c1ccccc1C[P+](c1ccccc1)(c1ccccc1)c1ccccc1
- Activity [4]: inactive
- Activity [9]: inactive

SMILES: Cc1ccc(C[P+](c2ccccc2)(c2ccccc2)c2ccccc2)cc1.[Cl-]
- Activity (Mus musculus [6]): Toxic
- Activity ([9]; route subcutaneous): 20%

SMILES: Cc1ccccc1[P+](Cc1ccccc1)(c1ccccc1C)c1ccccc1C.[Cl-]
- Activity [11]: inactive
- Activity [2]: inactive
- Activity [3]: inactive
- Activity [4]: inactive
- Activity [5]: inactive
- Activity (Mus musculus [16]): Toxic
- Activity (Mus musculus [6]): Toxic
- Activity [9]: inactive
- Activity [7]: inactive
- Activity [8]: inactive

SMILES: CC(C)(C)c1cc(C[P+](c2ccccc2)(c2ccccc2)c2ccccc2)cc(C(C)(C)C)c1O.[Br-]
- Activity [1]: inactive
- Activity [12]: inactive
- Activity [11]: inactive
- Activity [2]: inactive
- Activity [3]: inactive
- Activity [4]: inactive
- Activity (Mus musculus [14]): Toxic
- Activity [15]: inactive
- Activity [17]: inactive
- Activity [5]: inactive
- Activity [9]: inactive
- Activity [7]: inactive
- Activity [8]: inactive

SMILES: [Br-].c1ccc([P+](Cc2cccc3cccnc23)(c2ccccc2)c2ccccc2)cc1
- Activity [2]: inactive
- Activity [4]: inactive
- Activity [15]: inactive
- Activity (Mus musculus [6]): Toxic
- Activity [9]: inactive

SMILES: CCOc1ccc(C[P+](c2ccccc2)(c2ccccc2)c2ccccc2)cc1.[Cl-]
- Activity [2]: inactive
- Activity [4]: inactive
- Activity [17]: inactive
- Activity (Mus musculus [6]): Toxic
- Activity [9]: inactive
- Activity (Mus musculus [10]): Toxic

SMILES: Cc1ccccc1[P+](Cc1ccccc1)(c1ccccc1)c1ccccc1C.[Cl-]
- Activity [1]: inactive
- Activity [12]: inactive
- Activity [11]: inactive
- Activity [2]: inactive
- Activity [4]: inactive
- Activity (Mus musculus [14]): Toxic
- Activity [17]: inactive
- Activity (Mus musculus [6]): Toxic
- Activity (Mus musculus [10]): Toxic
- Activity [8]: inactive

SMILES: Cc1ccc(C[P+](c2ccccc2)(c2ccccc2)c2ccccc2)cc1.[Br-]
- Activity (Mus musculus [14]): Toxic
- Activity (Mus musculus [16]): Toxic
- Activity (Mus musculus [6]): Toxic
- Activity (Mus musculus [10]): Toxic

SMILES: Cc1ccccc1C[P+](c1ccccc1)(c1ccccc1)c1ccccc1.[Br-]
- Activity (Mus musculus [16]): Toxic
- Activity (Mus musculus [6]): Toxic
- Activity (Mus musculus [10]): Toxic

SMILES: [I-].c1ccc(CC(c2ccccc2)[P+](c2ccccc2)(c2ccccc2)c2ccccc2)cc1 (configuration not stated)
- Activity [11]: inactive
- Activity [2]: inactive
- Activity [4]: inactive
- Activity [5]: inactive
- Activity (Mus musculus [6]): Toxic
- Activity [9]: inactive

SMILES: Cc1ccc(C[P+](c2ccccc2)(c2ccccc2)c2ccccc2)cc1
- Activity [1]: inactive
- Activity [12]: inactive
- Activity [11]: inactive
- Activity [2]: inactive
- Activity [13]: inactive
- Activity [3]: inactive
- Activity [4]: inactive
- Activity [15]: inactive
- Activity [17]: inactive
- Activity [5]: inactive
- Activity [9]: inactive
- Activity [7]: inactive
- Activity [8]: inactive

SMILES: [Br-].c1ccc([P+](c2ccccc2)(c2ccccc2)c2ccccc2)cc1 [TETRAPHENYLPHOSPHONIUM BROMIDE]
- Activity [11]: inactive
- Activity [2]: inactive
- Activity [17]: inactive
- Activity [5]: inactive
- Activity (Mus musculus [6]): Toxic
- Activity [9]: inactive
- Activity (Mus musculus [10]): Toxic

SMILES: Cc1ccc([P+](Cc2ccccc2)(c2ccccc2)c2ccccc2)cc1.[Cl-]
- Activity [1]: inactive
- Activity [12]: inactive
- Activity [11]: inactive
- Activity [2]: inactive
- Activity [13]: inactive
- Activity [3]: inactive
- Activity [4]: inactive
- Activity (Mus musculus [14]): Toxic
- Activity [17]: inactive
- Activity (Mus musculus [16]): Toxic
- Activity (Mus musculus [6]): Toxic
- Activity [9]: inactive
- Activity [7]: inactive
- Activity (Mus musculus [10]): Toxic
- Activity [8]: inactive
